Among the test systems are SF-295; Malme-3M; MCF7; 786-0; HCT-116; NCI-H226; HCT-15; SNB-75; K562; IGROV-1; OVCAR-3; OVCAR-5; SR; UACC-62; MDA-MB-435; T47D; EKVX; CAKI-1; HL-60.
What all share (test): NCI-60 cell line screen, 48 h

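48-hour exposure; five concentrations; linearly interpolated endpoints. GI50 = concentration required for 50% inhibition of growth.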 Activity calls are given as the source filed them. Cut-off read from the data, not from the text of the source: active = GI50 up to about 1.1 µM and inactive = higher.

Turning to `CC(O)/C=C/C1OC(=O)CC1Nc1ccc(C=O)cc1` (stereo unspecified), the GI50 is 28 µM (inactive) in the experiment with SF-295; > 100 µM (inactive) with Malme-3M; 55.2 µM (inactive) in the experiment with MCF7; > 100 µM (inactive) with 786-0; > 100 µM (inactive) with HCT-116; > 100 µM (inactive) in the experiment with NCI-H226. In addition, the GI50 in the experiment with HCT-15 was 60.7 µM; in the experiment with SNB-75 it was > 100 µM (inactive); with K562 it was 41.5 µM (inactive); with IGROV-1 it was 91.2 µM (inactive); in the experiment on OVCAR-3 it was 81.3 µM (inactive); in the experiment with OVCAR-5, > 100 µM (inactive). The GI50 was 23.1 µM (inactive) in the experiment with SR; 23.7 µM (inactive) with UACC-62; > 100 µM (inactive) in the experiment with MDA-MB-435; 60.7 µM (inactive) in the experiment with T47D; > 100 µM (inactive) with EKVX.

With `O=C(N[C@H]1CCC[C@H]1C(=O)Nc1ccc(C(F)(F)F)cc1)OCc1ccccc1`, the GI50 in the experiment on SF-295 is > 100 µM (inactive); in the experiment on Malme-3M, > 100 µM (inactive); with MCF7, > 100 µM (inactive); in the experiment with 786-0 it was > 100 µM (inactive); in the experiment on HCT-116, > 100 µM (inactive); with NCI-H226 it was 65.3 µM (inactive). Moreover, the GI50 in the experiment with HCT-15 is over 100 µM; in the experiment with CAKI-1, > 100 µM (inactive); in the experiment with K562, > 100 µM (inactive); in the experiment on IGROV-1, > 100 µM (inactive); with OVCAR-3, > 100 µM (inactive); with OVCAR-5, > 100 µM (inactive). The GI50 with SR, in the experiment with HL-60, in the experiment with UACC-62, with MDA-MB-435, in the experiment on T47D and in the experiment on EKVX was > 100 µM (inactive) each time.

Regarding `N#Cc1c(N2CCN(c3ccc([N+](=O)[O-])cc3)CC2)[n+]([O-])c2ccc(Cl)cc2[n+]1[O-]`, the GI50 was 1.91 µM (inactive) in the experiment on SF-295; 2 µM (inactive) with Malme-3M; 0.973 µM (active) with MCF7; 0.718 µM (active) in the experiment on 786-0; 0.427 µM (active) in the experiment with HCT-116; 2.29 µM (inactive) with NCI-H226. For the same compound, the GI50 in the experiment with HCT-15 was 0.627 µM; in the experiment on CAKI-1, 0.489 µM (active); in the experiment on SNB-75, 2.36 µM (inactive); with K562, 0.231 µM (active); in the experiment on IGROV-1, 0.318 µM (active); in the experiment on OVCAR-3 it was 0.745 µM (active). Moreover, the GI50 with OVCAR-5 is 3.4 µM (inactive); in the experiment on SR it was 0.016 µM (active); with UACC-62, 1.18 µM (inactive); in the experiment on MDA-MB-435, 1.8 µM (inactive); with T47D, 0.716 µM (active); with EKVX, 1.71 µM (inactive).

For the compound `COc1cc(/C=C2\C(=O)N(Cc3ccccc3)C(c3ccccc3)S2(=O)=O)cc(OC)c1OC` (stereo unspecified), the GI50 in the experiment on SF-295 was 27 µM (inactive); in the experiment with Malme-3M, 39.9 µM (inactive); in the experiment with MCF7 it was 26.3 µM (inactive); with 786-0 it was 29.6 µM (inactive); with HCT-116, 17.6 µM (inactive); in the experiment on NCI-H226, 50.6 µM (inactive). Further, the GI50 in the experiment with HCT-15 was 27.5 µM; with CAKI-1, > 100 µM (inactive); with K562, 5.12 µM (inactive); in the experiment with OVCAR-3 it was 47.3 µM (inactive); in the experiment with OVCAR-5 it was > 100 µM (inactive); in the experiment on SR, 14.3 µM (inactive). Besides, the GI50 in the experiment with HL-60 was 5.13 µM (inactive); with UACC-62, 35.2 µM (inactive); with MDA-MB-435 it was 41.9 µM (inactive); in the experiment with T47D it was 29.2 µM (inactive); in the experiment on EKVX it was 17.1 µM (inactive).

Turning to `CSc1ccc(/C=C2\N=C(c3ccccc3)N(c3nc4cc(Cl)c(F)cc4s3)C2=O)cc1`, the GI50 in the experiment on SF-295 was 51.2 µM (inactive); in the experiment on MCF7 it was 39.9 µM (inactive); in the experiment on 786-0 it was 63.1 µM (inactive); in the experiment with HCT-116, 36.2 µM (inactive); with HCT-15, 76.9 µM; with CAKI-1, > 100 µM (inactive). The GI50 was 25 µM (inactive) in the experiment with SNB-75; 71.3 µM (inactive) in the experiment with K562; 36.5 µM (inactive) in the experiment on IGROV-1; 19.8 µM (inactive) in the experiment on OVCAR-3; 71.3 µM (inactive) in the experiment with OVCAR-5; 37.4 µM (inactive) with SR. The GI50 was 38.3 µM (inactive) with HL-60; 43.6 µM (inactive) in the experiment on UACC-62; 33 µM (inactive) with MDA-MB-435; 26.1 µM (inactive) in the experiment on T47D; 28.3 µM (inactive) with EKVX.

Regarding `O=C(O)CSCc1cc2c(O)c(c1)Cc1cc(CSCC(=O)O)cc(c1O)Cc1cc(CSCC(=O)O)cc(c1O)Cc1cc(CSCC(=O)O)cc(c1O)C2`, the GI50 was > 100 µM (inactive) in the experiment on SF-295; > 100 µM (inactive) in the experiment with Malme-3M; > 100 µM (inactive) in the experiment on MCF7; > 100 µM (inactive) in the experiment on 786-0; > 100 µM (inactive) in the experiment on HCT-116; 89.5 µM (inactive) in the experiment on NCI-H226. In addition, the GI50 in the experiment on HCT-15 is over 100 µM; with CAKI-1, > 100 µM (inactive); in the experiment with K562, > 100 µM (inactive); in the experiment with IGROV-1 it was > 100 µM (inactive); with OVCAR-3 it was > 100 µM (inactive); with OVCAR-5 it was > 100 µM (inactive). Further, the GI50 in the experiment on SR is > 100 µM (inactive); in the experiment on HL-60 it was > 100 µM (inactive); in the experiment on MDA-MB-435, 61.1 µM (inactive); in the experiment with T47D, > 100 µM (inactive); in the experiment with EKVX it was > 100 µM (inactive).

As for `C(/Cc1ccc2c(c1)OCO2)=N\N=C1NCCCCN1`, the GI50 is 51.5 µM (inactive) with SF-295; > 100 µM (inactive) in the experiment on Malme-3M; 88.3 µM (inactive) in the experiment on MCF7; > 100 µM (inactive) with 786-0; 64.7 µM (inactive) in the experiment on HCT-116; 49.2 µM (inactive) in the experiment on NCI-H226. Further, the GI50 in the experiment with HCT-15 is over 100 µM; in the experiment on SNB-75, 44.8 µM (inactive); in the experiment on K562, 41.9 µM (inactive); in the experiment on IGROV-1 it was 68.9 µM (inactive); in the experiment with OVCAR-3 it was > 100 µM (inactive); in the experiment with OVCAR-5, 34.7 µM (inactive). Also, the GI50 in the experiment with SR is 69.3 µM (inactive); with HL-60 it was > 100 µM (inactive); in the experiment on UACC-62, > 100 µM (inactive); in the experiment on MDA-MB-435, > 100 µM (inactive); in the experiment on T47D, 54.5 µM (inactive); in the experiment with EKVX it was 50 µM (inactive).

Regarding `CNC(=O)N(CCC#N)CCN(CCN(C(=O)NC)c1ccccc1)C(=O)NC`, the GI50 with SF-295, in the experiment with Malme-3M, with MCF7, in the experiment on 786-0, with HCT-116 and in the experiment on NCI-H226 was > 100 µM (inactive) throughout. Moreover, the GI50 in the experiment with HCT-15 is over 100 µM; in the experiment on CAKI-1, > 100 µM (inactive); in the experiment on SNB-75, > 100 µM (inactive); with K562, > 100 µM (inactive); with IGROV-1, > 100 µM (inactive); with OVCAR-3, > 100 µM (inactive). For the same compound, the GI50 in the experiment with OVCAR-5, with SR, in the experiment on UACC-62, with MDA-MB-435, with T47D and in the experiment with EKVX was > 100 µM (inactive) in each case.

`CCn1ncc2c1nc(-c1ccccc1)c[n+]2[O-]`: the GI50 with SF-295 is > 100 µM (inactive); with MCF7 it was 46 µM (inactive); in the experiment with 786-0 it was > 100 µM (inactive); in the experiment with HCT-116 it was 63.7 µM (inactive); in the experiment with HCT-15 it was over 100 µM; with SNB-75, 36.9 µM (inactive). Also, the GI50 with K562 is > 100 µM (inactive); in the experiment with IGROV-1, > 100 µM (inactive); in the experiment with OVCAR-3, > 100 µM (inactive); in the experiment with OVCAR-5 it was > 100 µM (inactive); in the experiment on SR, > 100 µM (inactive); in the experiment with UACC-62, 6.15 µM (inactive). Further, the GI50 with MDA-MB-435, in the experiment with T47D and with EKVX was > 100 µM (inactive) each time.

Regarding `COc1ccc(/C=C2\CCCCCC2=O)cc1`, the GI50 in the experiment on SF-295, with Malme-3M, with MCF7, with 786-0, in the experiment on HCT-116 and with NCI-H226 was > 100 µM (inactive) throughout. Moreover, the GI50 was over 100 µM in the experiment on HCT-15; > 100 µM (inactive) in the experiment with CAKI-1; > 100 µM (inactive) in the experiment with K562; > 100 µM (inactive) in the experiment with IGROV-1; > 100 µM (inactive) in the experiment with OVCAR-3; > 100 µM (inactive) in the experiment with OVCAR-5. Also, the GI50 with SR, with UACC-62, in the experiment on MDA-MB-435, with T47D and in the experiment on EKVX was > 100 µM (inactive) each time.

With `N=c1oc2cc(O)ccc2cc1C(=O)NCc1ccccc1`, the GI50 in the experiment with SF-295 is 35.2 µM (inactive); in the experiment on Malme-3M, 21.7 µM (inactive); in the experiment on MCF7, 33.2 µM (inactive); in the experiment on 786-0 it was 32.1 µM (inactive); in the experiment on HCT-116, 22.2 µM (inactive); in the experiment with NCI-H226, 32.8 µM (inactive). Moreover, the GI50 with HCT-15 was 27.2 µM; with CAKI-1, 20.3 µM (inactive); in the experiment on SNB-75, 8.85 µM (inactive); in the experiment on K562, 10.3 µM (inactive); in the experiment with IGROV-1, 21.3 µM (inactive); in the experiment with OVCAR-3, 22.6 µM (inactive). Moreover, the GI50 in the experiment on OVCAR-5 was 53.7 µM (inactive); with SR it was 11.9 µM (inactive); in the experiment on MDA-MB-435 it was 17.7 µM (inactive); with T47D, 8.61 µM (inactive); in the experiment with EKVX, 32.8 µM (inactive).

On to `Cc1cccc(/C=N/NC(=S)Nc2ccc(Cl)cc2)n1`, for which the GI50 with SF-295 is 2.02 µM (inactive); in the experiment with Malme-3M, 0.665 µM (active); in the experiment on MCF7 it was 0.607 µM (active); with 786-0 it was 1.63 µM (inactive); with HCT-116 it was 1.47 µM (inactive); with HCT-15, 0.519 µM. Also, the GI50 in the experiment with CAKI-1 is 1.7 µM (inactive); with SNB-75, 0.741 µM (active); with K562 it was 0.329 µM (active); with IGROV-1, 0.811 µM (active); in the experiment on OVCAR-3, 0.968 µM (active); with OVCAR-5, 15.7 µM (inactive). Besides, the GI50 in the experiment on SR was 0.778 µM (active); in the experiment on UACC-62 it was 0.643 µM (active); in the experiment with MDA-MB-435 it was 0.205 µM (active); with T47D, 0.611 µM (active); with EKVX it was 2.41 µM (inactive).

The values above are taken from ChEMBL document CHEMBL1201862, “PubChem BioAssay data set” (2004).
